Tests used:
[1] = Example 2B: similar metabolism analysis of further deuterated ibogaine analogs; type: in vitro ADME; conditions: present tense, no data
Protocol: A similar analysis is performed with each of CD2HO-ibogamine, CDH2O-ibogamine, CD3CD2O-ibogamine, CD3CH2O-ibogamine, CH3CD2O-ibogamine and CH3CDHO-ibogamine.

[2] = Plasma pharmacokinetics and brain distribution in male Wistar rats after a single intraperitoneal dose; conditions: for AUC(0-t) / Cmax / Tmax: ip, 40 mg/kg; for AUC(0-t): AUClast
Protocol: Formulation strengths for intraperitoneal administration was 4 mg/mL. A weighed quantity of compound was combined with an appropriate volume of vehicle (10% ethanol and 90% normal saline), the mixture was warmed to 55° C. and vortexed until a clear yellowish solution was obtained. The dosing volume administered was 10 mL/kg for intraperitoneal route.
Healthy male Wistar rats (8-12 weeks old) weighing between 280 to 300 g were procured from Global, India. Three rats were housed in each cage. […] Temperature and humidity were recorded by auto-controlled data logger system. All the animals were provided laboratory rodent diet (Envigo Research private Ltd, Hyderabad). Reverse osmosis water treated with ultraviolet light was provided ad libitum.
Blood samples (approximately 120 μL) were collected under light isoflurane anesthesia from retro orbital plexus from a set of three rats at specified time intervals. Samples were collected into labeled micro-tubes, containing K2EDTA solution (10 μL of 20% K2EDTA of solution per mL of blood) as an anticoagulant. Plasma was immediately harvested from the blood by centrifugation at 4000 rpm for 10 min at 4±2° C. and stored below −70±10° C. until bioanalysis.
Immediately, after blood collection animals were euthanized with excess CO2 and brain was isolated at each time point. Brain was rinsed three times in ice cold PBS (for 5-10 seconds/rinse using ˜5-10 mL fresh PBS in disposable petri dish for each rinse) and dried on blotting paper. Brain samples were homogenized using ice-cold phosphate buffer saline (pH 7.4) and homogenates were stored below −70±10° C. until analysis. Total homogenate volume was three times the tissue weight.
The extraction procedure for plasma and brain samples and the spiked plasma and brain calibration standards were identical: A 25 PL of study sample or spiked plasma and brain calibration standard was added to individual pre-labeled micro-centrifuge tubes followed by 100 PL of internal standard prepared in Acetonitrile (Glipizide, 500 ng/mL) was added except for blank, where 100 μL of Acetonitrile was added. Samples were vortexed for 5 minutes and then centrifuged for 10 minutes at a speed of 4000 rpm at 4° C. Following centrifugation, 100 μL of clear supernatant was transferred to a 96 well plate and analyzed using LC-MS/MS.
Non-compartmental analysis tool of Phoenix WinNonlin® (Version 7.0) was used to assess the pharmacokinetic parameters. Peak plasma concentrations (Cmax) and time for the peak plasma concentrations (Tmax) were the observed values. The areas under the concentration time curve (AUClast and AUCinf) were calculated by linear trapezoidal rule. The terminal elimination rate constant, ke was determined by regression analysis of the linear terminal portion of the log plasma concentration-time curve.

[3] = Buffer control for chemical instability in the incubation buffer; type: physicochemical; conditions: Kphos buffer pH 7.4, 37° C., no microsomes, minus NADPH
[4] = in vitro
Protocol: (§1) Metabolism Studies. Metabolic stability of test compounds was evaluated in liver microsomes from rat (RLM) and human (HLM). This was accomplished by incubating test compounds with microsomes and monitoring disappearance of parent compound as well as metabolite formation over time using LC-MS/MS in Multiple Reaction Monitoring mode (MRM).
(§2) Stock solutions of test compounds were prepared in DMSO at a concentration of 10 mM.
(§3) Total Incubation volume: 100 μL
(§4) Compound concentration: 10 μM
(§5) Protein Concentration: 0.5 mg/mL (0.25 mg/mL for positive controls)
(§6) From the above mix, 70 PL was added to individual wells of 96 well reaction plates and pre-incubated at 37° C. for 5 min. […] Reactions without NADPH and buffer controls (minus NADPH) at 0 min and 60 min were also incubated to rule out non-NADPH metabolism or chemical instability in the incubation buffer. All reactions were terminated using 100 μL of ice-cold acetonitrile containing internal standard (glipizide) at 0, 5, 15, 30 and 60 min.
(§7) Stock solution of noribogaine was prepared in DMSO at a concentration of 20 mM and serially diluted in DMSO to prepare 10, 3, 1, 0.3, 0.1 and 0.03 mM solutions respectively.
(§8) Samples were monitored for parent compounds disappearance and formation of metabolite in MRM mode using LC-MS/MS instrument (API-4000 with Waters UPLC).
(§9) The percent remaining of test compounds and positive control in each sample was determined by considering peak area ratio in the 0 minute sample as 100%.
(§10) In vitro intrinsic clearance (CL′int) (units in mL/min/kg) was calculated using the formula: […]
(§11) For human, monkey, dog, rat and mouse the liver weight are 20 gm, 32 gm, 32 gm, 40 gm and 90 gm respectively.

[5] = Metabolic stability and noribogaine formation in rat liver microsomes (RLM); conditions: for Percentage turnover of test compounds (percent remaining): 10 μM, +NADPH
Protocol: as §1, §2, §3, §4, §5, §6, §7, §8, §9, §10, §11

[6] = 0.08 h after CD3O-ibogamine 40 mg/kg i.p.
[7] = 0.08 h after ibogaine 40 mg/kg i.p.
[8] = 0.5 h after CD3O-ibogamine 40 mg/kg i.p.
[9] = 0.5 h after ibogaine 40 mg/kg i.p.
[10] = 1 h after CD3O-ibogamine 40 mg/kg i.p.
[11] = 1 h after ibogaine 40 mg/kg i.p.
[12] = 2 h after CD3O-ibogamine 40 mg/kg i.p.
[13] = 2 h after ibogaine 40 mg/kg i.p.
[14] = 3 h after CD3O-ibogamine 40 mg/kg i.p.
[15] = 3 h after ibogaine 40 mg/kg i.p.
[16] = male, Wistar, rat, in vivo, plasma, analyte after CD3O-ibogamine 40 mg/kg i.p.
[17] = male, Wistar, rat, in vivo, plasma, analyte after ibogaine 40 mg/kg i.p.
[18] = male, Wistar, rat, in vivo, brain, analyte after CD3O-ibogamine 40 mg/kg i.p.
[19] = male, Wistar, rat, in vivo, brain, analyte after ibogaine 40 mg/kg i.p.

Q: What does the source list for `[2H]C(C)Oc1ccc2[nH]c3c(c2c1)CCN1CC2CC(CC)C1C3C2` (stereo not drawn) [CH3CDHO-ibogamine]?
A: degradation compared to ibogaine [1]: at least as fast or faster than ibogaine; formation of noribogaine compared to that of ibogaine [1]: as fast or slower

Q: Which Mean brain concentration [2, 6] does the source give for `CCC1CC2CC3c4[nH]c5ccc(O)cc5c4CCN(C2)C13` (stereo not drawn) [Noribogaine] here?
A: Its Mean brain concentration is 2997 ng/g.

Q: And the Mean plasma concentration [2, 6]?
A: Its Mean plasma concentration is 208 ng/mL.

Q: And the Mean brain concentration [2, 7]?
A: The Mean brain concentration was 2383 ng/g.

Q: And the Mean plasma concentration [2, 7]?
A: The Mean plasma concentration was 312 ng/mL.

Q: And the Mean brain concentration [2, 8]?
A: Its Mean brain concentration is 10413 ng/g.

Q: What about the Mean plasma concentration [2, 8] of the same compound?
A: Its Mean plasma concentration is 677 ng/mL.

Q: What about the Mean brain concentration [2, 9] of the same compound?
A: The Mean brain concentration was 14563 ng/g.

Q: And the Mean plasma concentration [2, 9]?
A: Its Mean plasma concentration is 1179 ng/mL.

Q: What about the Mean brain concentration [2, 10] of the same compound?
A: Its Mean brain concentration is 13254 ng/g.

Q: What about the Mean plasma concentration [2, 10] of the same compound?
A: The Mean plasma concentration was 736 ng/mL.

Q: And the Mean brain concentration [2, 11]?
A: Its Mean brain concentration is 17727 ng/g.

Q: And the Mean plasma concentration [2, 11]?
A: The Mean plasma concentration was 1455 ng/mL.

Q: And the Mean brain concentration [2, 12]?
A: Its Mean brain concentration is 14940 ng/g.

Q: What about the Mean plasma concentration [2, 12] of the same compound?
A: The Mean plasma concentration was 690 ng/mL.

Q: What about the Mean brain concentration [2, 13] of the same compound?
A: Its Mean brain concentration is 11692 ng/g.

Q: What about the Mean plasma concentration [2, 13] of the same compound?
A: The Mean plasma concentration was 846 ng/mL.

Q: What about the Mean brain concentration [2, 14] of the same compound?
A: Its Mean brain concentration is 10509 ng/g.

Q: And the Mean plasma concentration [2, 14]?
A: The Mean plasma concentration was 584 ng/mL.

Q: And the Mean brain concentration [2, 15]?
A: The Mean brain concentration was 10540 ng/g.

Q: And the Mean plasma concentration [2, 15]?
A: The Mean plasma concentration was 861 ng/mL.

Q: And the AUClast ([2]; brain, analyte after CD3O-ibogamine 40 mg/kg i.p.)?
A: The AUClast was 36953.27 ng·h/g.

Q: And the AUClast ([2]; brain, analyte after ibogaine 40 mg/kg i.p.)?
A: Its AUClast is 39658.47 ng·h/g.

Q: And the Mean brain concentration ([2]; male, Wistar, rat, in vivo)?
A: Its Mean brain concentration is 17341 ng/g.

Q: What about the Mean plasma concentration ([2]; male, Wistar, rat, in vivo) of the same compound?
A: The Mean plasma concentration was 871 ng/mL.

Q: And the AUC(0-t) [2, 16]?
A: Its AUC(0-t) is 1970 ng·h/mL.

Q: And the AUC(0-t) [2, 17]?
A: Its AUC(0-t) is 3030 ng·h/mL.

Q: What about the Cmax [2, 18] of the same compound?
A: The Cmax was 14900 ng/g.

Q: And the Cmax [2, 19]?
A: The Cmax was 17700 ng/g.

Q: And the Cmax [2, 16]?
A: Its Cmax is 736 ng/mL.

Q: What about the Cmax [2, 17] of the same compound?
A: The Cmax was 1460 ng/mL.

Q: What about the Tmax [2, 18] of the same compound?
A: Its Tmax is 2 h.

Q: What about the Tmax [2, 19] of the same compound?
A: The Tmax was 1 h.

Q: What about the Tmax [2, 16] of the same compound?
A: The Tmax was 1 h.

Q: And the Tmax [2, 17]?
A: Its Tmax is 1 h.

Q: What does the source list for `[2H]C([2H])([2H])C([2H])([2H])Oc1ccc2[nH]c3c(c2c1)CCN1CC2CC(CC)C1C3C2` (stereo not drawn) [CD3CD2O-ibogamine]?
A: degradation compared to ibogaine [1]: at least as fast or faster than ibogaine; formation of noribogaine compared to that of ibogaine [1]: as fast or slower

Q: Which “% Remaining at 60 min (Buffer)” value [3] does the source give for `CCOc1ccc2[nH]c3c(c2c1)CCN1C[C@H]2C[C@H](CC)C1[C@H]3C2` [EtO-Ibogamine, 10-ethoxy-ibogamine] here?
A: The value was 88%.

Q: And the “Percentage turnover of test compounds (percent remaining)” value ([4]; human, microsomes, 0 h, pH 7.4)?
A: The value was 100%.

Q: And the “Percentage turnover of test compounds (percent remaining)” value ([4]; human, microsomes, 5 min, pH 7.4)?
A: Its value is 103%.

Q: What about the “Percentage turnover of test compounds (percent remaining)” value ([4]; human, microsomes, 0.5 h, pH 7.4) of the same compound?
A: The value was 85%.

Q: And the “% Remaining at 60 min (+NADPH)” value ([4]; human, microsomes, 1 h, pH 7.4)?
A: Its value is 66%.

Q: And the “% Remaining at 60 min (−NADPH)” value ([4]; human, microsomes, 1 h, pH 7.4)?
A: Its value is 106%.

Q: What about the “Percentage turnover of test compounds (percent remaining)” value ([4]; human, microsomes, 1 h, pH 7.4) of the same compound?
A: Its value is 66%.

Q: What about the “Percentage turnover of test compounds (percent remaining)” value ([4]; human, microsomes, […], pH 7.4) of the same compound?
A: The value was 98%.

Q: What about the half-life ([4]; human, microsomes, pH 7.4) of the same compound?
A: Its half-life is greater than 1 h.

Q: And the “CLh, int” value ([4]; human, pH 7.4)?
A: The value was 13 mL/min/kg.

Q: And the “rate of conversion of the compound compared to that of ibogaine” value ([4]; liver microsomes, species not given)?
A: The value was “essentially the same”.

Q: And the “CLh, int” value ([5]; RLM)?
A: The value was 445 mL/min/kg.

Q: What about the “Percentage turnover of test compounds (percent remaining)” value ([5]; RLM, 0 min) of the same compound?
A: Its value is 100%.

Q: What about the “Percentage turnover of test compounds (percent remaining)” value ([5]; RLM, 5 min) of the same compound?
A: The value was 77%.

Q: And the “Percentage turnover of test compounds (percent remaining)” value ([5]; RLM, 15 min)?
A: The value was 42%.

Q: And the “Percentage turnover of test compounds (percent remaining)” value ([5]; RLM, 30 min)?
A: The value was 3%.

Q: What about the “Percentage turnover of test compounds (percent remaining)” value ([5]; RLM, 60 min) of the same compound?
A: Its value is 0%.

Q: What about the “% Remaining at 60 min (+NADPH)” value ([5]; RLM, summary) of the same compound?
A: The value was 0%.

Q: And the “% Remaining at 60 min (−NADPH)” value ([5]; RLM, without NADPH)?
A: Its value is 88%.

Q: What about the half-life at 10 μM ([5]; male, rat, microsomes, pH 7.4) of the same compound?
A: The half-life at 10 μM was 6 min.

Q: For `[2H]C([2H])(C)Oc1ccc2[nH]c3c(c2c1)CCN1CC2CC(CC)C1C3C2` (stereo not drawn) [CH3CD2O-ibogamine], which “degradation compared to ibogaine” value [1] is on record?
A: The value was “at least as fast or faster than ibogaine”.

Q: What about the “formation of noribogaine compared to that of ibogaine” value [1] of the same compound?
A: The value was “as fast or slower”.

Q: For `[2H]C([2H])Oc1ccc2[nH]c3c(c2c1)CCN1CC2CC(CC)C1C3C2` (stereo not drawn) [CD2HO-ibogamine], which “degradation compared to ibogaine” value [1] is on record?
A: Its value is “at least as fast or faster than ibogaine”.

Q: And the “formation of noribogaine compared to that of ibogaine” value [1]?
A: Its value is “as fast or slower”.

Q: For `[2H]COc1ccc2[nH]c3c(c2c1)CCN1CC2CC(CC)C1C3C2` (stereo not drawn) [CDH2O-ibogamine], which “degradation compared to ibogaine” value [1] is on record?
A: The value was “at least as fast or faster than ibogaine”.

Q: What about the “formation of noribogaine compared to that of ibogaine” value [1] of the same compound?
A: The value was “as fast or slower”.

Q: With `[2H]C([2H])([2H])COc1ccc2[nH]c3c(c2c1)CCN1CC2CC(CC)C1C3C2` (stereo not drawn) [CD3CH2O-ibogamine] as the compound, how does the “degradation compared to ibogaine” value [1] read?
A: Its value is “at least as fast or faster than ibogaine”.

Q: What about the “formation of noribogaine compared to that of ibogaine” value [1] of the same compound?
A: The value was “as fast or slower”.

Source: US12564597B2 (priority 2020, dated 2026)
